Test results from paper PMC7329366 (Molecular nutrition & food research, 2020).
Where two headings read alike, the source gives them in different places.

How the values were obtained:
[1] = Plasma pharmacokinetics after a single oral RK dose, male vs female mice; assay type: in vivo, C57BL/6J mice
[2] = assay type: in vivo, C57BL/6J mice; conditions: for Cmax: mean±SEM; for presence in the brain: brain of either sexes after oral RK
[3] = Plasma pharmacokinetics after a single oral RK dose, normal-weight; assay type: in vivo, C57BL/6J mice; conditions: for AUC(0-t): AUC (0–12 h); for half-life: T1/2 (elimination half-life)
[4] = assay type: in vivo, C57BL/6J mice; conditions: single oral RK 200 mg kg^−1; for half-life: T1/2 (elimination half-life)
[5] = Distribution in white adipose tissue; assay type: in vivo, C57BL/6J mice; conditions: epididymal WAT; for time within which considerable accumulation in WAT was observed: male mice, oral RK 200 mg kg^−1; for increase in WAT level in obese animals compared with normal-weight: between 15 and 30 min
[6] = assay type: in vivo; conditions: in 24 h, normal-weight male mice, preliminary dosing tests
[7] = female, C57BL/6J, mouse, plasma, po, 200 mg/kg
[8] = male, C57BL/6J, mouse, plasma, po, 200 mg/kg
[9] = Br-F: brain, female LFD mice, single oral RK 200 mg kg^−1
[10] = Br-M: brain, male LFD mice, single oral RK 200 mg kg^−1
[11] = female, C57BL/6J, mouse, brain, po, 200 mg/kg
[12] = male, C57BL/6J, mouse, brain, po, 200 mg/kg
[13] = male, C57BL/6J, mouse, plasma, po, 200 mg/kg, Pl-N: plasma, normal-weight male mice, single oral RK 200 mg kg^−1
[14] = male, C57BL/6J, mouse, plasma, po, 200 mg/kg, Pl-O: plasma, obese male mice, single oral RK 200 mg kg^−1
[15] = male, C57BL/6J, mouse, plasma, po, 200 mg/kg, Tmax, Pl-N: plasma, normal-weight male mice, single oral RK 200 mg kg^−1
[16] = Br-N: brain, normal-weight male mice
[17] = male, C57BL/6J, mouse, brain, po, 200 mg/kg, Br-N: brain, normal-weight male mice
[18] = male, C57BL/6J, mouse, brain, po, 200 mg/kg, Tmax, Br-N: brain, normal-weight male mice
[19] = male, C57BL/6J, mouse, brain, po, 200 mg/kg, Br-O: brain, obese male mice
[20] = Pl-F: plasma, female LFD mice, single oral RK 200 mg kg^−1
[21] = Pl-M: plasma, male LFD mice, single oral RK 200 mg kg^−1
[22] = Pl-N: plasma, normal-weight male mice, single oral RK 200 mg kg^−1
[23] = Pl-O: plasma, obese male mice, single oral RK 200 mg kg^−1

Cmax [1, 7] [µM]	Tmax [1, 7] [min]	AUC(0-t) [1, 8] [µM·h]	Tmax [1, 8] [min]	half-life [1, 8] [min]	Cmax [2, 9] [nmol/g]	Cmax [2, 10] [nmol/g]	Tmax [2, 11] [min]	half-life [2, 11] [min]	Tmax [2, 12] [min]	half-life [2, 12] [min]	AUC(0-t) [3, 13] [µM·h]	half-life [3, 13] [min]	half-life [3, 14] [min]	Tmax [3, 15] [min]	Cmax [4, 16] [nmol/g]	Cmax ([4]; Br-O: brain, obese male mice) [nmol/g]	half-life [4, 17] [min]	Tmax [4, 18] [min]	time within which considerable accumulation in WAT was observed [5] [min]	SMILES	further results
0.086 ± 0.022	25	0.05 ± 0.005	20	26.7 ± 2.81	–	–	–	–	–	–	0.039 ± 0.008	31 ± 5.6	41.7 ± 1.2	20	–	–	–	–	≤ 15	COc1ccc(CCC(C)=O)cc1 [RK-Me, 4-(4-methoxy-phenyl)-2-butanone]	AUC(0-t) [1, 7]: 0.069 ± 0.01 µM·h; half-life [1, 7]: 31.4 ± 1.84 min; presence in the brain [2]: not found; AUC(0-t) [3, 14]: 0.047 ± 0.007 µM·h
281 ± 17.1	15	358 ± 34	15	78.4 ± 3.55	37.4 ± 8.73	28.9 ± 2.42	15	28.3 ± 1.65	15	25.7 ± 2	387 ± 25.6	73.3 ± 1.2	94.7 ± 7.8	15	32.7 ± 4.34	46.7 ± 6.2	39.5 ± 1.9	20	≤ 15	CC(=O)CCc1ccc(O)cc1 [RK, 4-(4-hydroxyphenyl)-2-butanone]	Tmax ([1]; both, C57BL/6J, mouse, plasma, po, 200 mg/kg): ~15 min; AUC(0-t) [1, 7]: 299 ± 20.2 µM·h; time of absorption and tissue accumulation ([1]; oral RK 200 mg kg^−1, this study): < 30 min; maximal circulating concentration ([3]; plasma, normal-weight mice): 236 nM; maximal circulating concentration ([3]; plasma, obese mice): 318 nM; twelve-hour plasma accumulation in obese animals as % of normal-weight ones ([3]; plasma, obese vs normal-weight): 152.2–197.6%; half-life [4, 19]: 41.5 ± 4 min; increase in WAT level in obese animals compared with normal-weight [5]: 30–90%; higher residual content in WAT of obese mice ([5]; between 30 min and 2 h, obese vs normal-weight): > 100%; clearance from the bloodstream [6]: > 99%
–	–	–	–	–	21.6 ± 4.72	21.0 ± 2.68	–	–	–	–	–	–	–	–	55.1 ± 8.12	60.3 ± 6.6	–	–	≤ 15	CC(O)CCc1ccc(O)cc1 (stereo not drawn) [ROH, raspberry alcohol]	AUC (0–12 h) [1, 20]: 158 ± 17.1 nmol/mL/min; Tmax [1, 20]: 25.0 ± 4.99 min; Cmax ([1]; Pl-F: plasma, female LFD mice, single oral RK 200 mg kg^−1, mean±SEM): 130 ± 12.7 µM; AUC (0–12 h) [1, 21]: 177 ± 11.8 nmol/mL/min; T1/2 (elimination half-life) [1, 21]: 63.2 ± 2.61 min; Tmax [1, 21]: 25.0 ± 4.99 min; T1/2 (elimination half-life) [2, 10]: 32.0 ± 0.77 min; Tmax [2, 10]: 20.0 ± 5.0 min; AUC (0–12 h) [3, 22]: 208 ± 22.0 nmol/mL/min; T1/2 (elimination half-life) [3, 22]: 66.1 ± 1.7 min; Tmax [3, 22]: 25.0 ± 5.0 min; T1/2 (elimination half-life) [3, 23]: 70.0 ± 1.5 min; Tmax [3, 23]: 50.0 ± 10.0 min; T1/2 (elimination half-life) [4, 16]: 33.7 ± 2.2 min; Tmax [4, 16]: 20.0 ± 5.0 min; Tmax ([4]; Br-O: brain, obese male mice): 40.0 ± 10.0 min; increase in WAT level in obese animals compared with normal-weight [5]: 30–90%
43.6 ± 2.9	40	108 ± 10.9	50	104 ± 2.1	1.28 ± 0.08	1.03 ± 0.14	20	–	15	64.7 ± 7.78	20.7 ± 2.92	73 ± 4.7	56.3 ± 8.8	20	6.14 ± 0.49	7.92 ± 1.60	31.5 ± 4.38	25	≤ 15	OCCc1ccc(O)cc1 [4-HPE, 2-(4-hydroxyphenyl)ethanol]	AUC(0-t) [1, 7]: 98.7 ± 7.38 µM·h; AUC(0-t) [3, 14]: 28.7 ± 3.65 µM·h; half-life [4, 19]: 38.8 ± 2.56 min

Further lines, the molecule ahead of its results:

SMILES	Cmax [1, 7] [µM]	Tmax [1, 7] [min]	AUC(0-t) [1, 8] [µM·h]	Tmax [1, 8] [min]	half-life [1, 8] [min]	Cmax [2, 9] [nmol/g]	Cmax [2, 10] [nmol/g]	Tmax [2, 11] [min]	half-life [2, 11] [min]	Tmax [2, 12] [min]	half-life [2, 12] [min]	AUC(0-t) [3, 13] [µM·h]	half-life [3, 13] [min]	half-life [3, 14] [min]	Tmax [3, 15] [min]	Cmax [4, 16] [nmol/g]	Cmax ([4]; Br-O: brain, obese male mice) [nmol/g]	half-life [4, 17] [min]	Tmax [4, 18] [min]	time within which considerable accumulation in WAT was observed [5] [min]	further results
OCCc1ccc(O)c(O)c1 [3,4-DHPE, 2-(3,4-dihydroxyphenyl)ethanol]	0.024 ± 0.002	15	0.057 ± 0.006	20	41.8 ± 1.25	0.020 ± 0.006	0.021 ± 0.003	15	20.3 ± 1.41	15	21 ± 0.16	0.08 ± 0.006	48.9 ± 6.9	51.7 ± 4.36	20	0.031 ± 0.003	0.025 ± 0.002	35.5 ± 3.94	20	–	half-life [1, 7]: 63.6 ± 6.84 min
CC(=O)C=Cc1ccc(O)c(O)c1 [DHPhLiAce, 3,4-dihydroxybenzylideneacetone]	–	15	0.465 ± 0.046	40	41.4 ± 2.91	0.112 ± 0.042	0.067 ± 0.011	25	35.8 ± 2.29	20	33.4 ± 0.73	1.04 ± 0.16	41.6 ± 3	48 ± 2.1	30	0.23 ± 0.012	–	36.2 ± 1.6	30	≤ 15	half-life [1, 7]: 30 ± 4.24 min; AUC(0-t) [3, 14]: 1.38 ± 0.04 µM·h; half-life [4, 19]: 37.2 ± 0.22 min
CC(=O)C=Cc1ccccc1 [benzylideneacetone]	–	–	–	–	–	–	–	–	–	–	–	–	–	–	–	–	–	–	–	–	presence in the brain [2]: not found
COc1cc(/C=C/C(=O)O)ccc1O [ferulic acid]	–	–	–	–	–	–	–	–	–	–	–	–	–	–	–	–	–	–	–	–	presence in the brain [2]: not found
O=C(O)CCc1cccc(O)c1 [3-(3-hydroxyphenyl)propionic acid]	–	–	–	–	–	–	–	–	–	–	–	–	–	–	–	–	–	–	–	–	presence in the brain [2]: not found
COc1cc(CCC(C)=O)ccc1O [VLAce, vanillylacetone]	9.94 ± 2.4	15	31 ± 3.65	25	46.4 ± 2.1	1.49 ± 0.30	1.51 ± 0.15	–	89.2 ± 10	15	84.1 ± 3.55	61.2 ± 4.7	40.9 ± 4.8	68.8 ± 17.3	25	2.07 ± 0.24	–	44.4 ± 2.18	40	≤ 15	–
